From patent US20240327382A1 (ALMAC DISCOVERY LIMITED, priority 2021, published 2024)
Where a name gives a salt, the structure may show the parent alone.

Target: T1, Full-length USP19 (Homo sapiens, UniProt O94966)
T1 construct: Full-length USP19 was purchased from Boston Biochem (E-576); purchased Boston Biochem E-576
T1 sequence (O94966 1-1318): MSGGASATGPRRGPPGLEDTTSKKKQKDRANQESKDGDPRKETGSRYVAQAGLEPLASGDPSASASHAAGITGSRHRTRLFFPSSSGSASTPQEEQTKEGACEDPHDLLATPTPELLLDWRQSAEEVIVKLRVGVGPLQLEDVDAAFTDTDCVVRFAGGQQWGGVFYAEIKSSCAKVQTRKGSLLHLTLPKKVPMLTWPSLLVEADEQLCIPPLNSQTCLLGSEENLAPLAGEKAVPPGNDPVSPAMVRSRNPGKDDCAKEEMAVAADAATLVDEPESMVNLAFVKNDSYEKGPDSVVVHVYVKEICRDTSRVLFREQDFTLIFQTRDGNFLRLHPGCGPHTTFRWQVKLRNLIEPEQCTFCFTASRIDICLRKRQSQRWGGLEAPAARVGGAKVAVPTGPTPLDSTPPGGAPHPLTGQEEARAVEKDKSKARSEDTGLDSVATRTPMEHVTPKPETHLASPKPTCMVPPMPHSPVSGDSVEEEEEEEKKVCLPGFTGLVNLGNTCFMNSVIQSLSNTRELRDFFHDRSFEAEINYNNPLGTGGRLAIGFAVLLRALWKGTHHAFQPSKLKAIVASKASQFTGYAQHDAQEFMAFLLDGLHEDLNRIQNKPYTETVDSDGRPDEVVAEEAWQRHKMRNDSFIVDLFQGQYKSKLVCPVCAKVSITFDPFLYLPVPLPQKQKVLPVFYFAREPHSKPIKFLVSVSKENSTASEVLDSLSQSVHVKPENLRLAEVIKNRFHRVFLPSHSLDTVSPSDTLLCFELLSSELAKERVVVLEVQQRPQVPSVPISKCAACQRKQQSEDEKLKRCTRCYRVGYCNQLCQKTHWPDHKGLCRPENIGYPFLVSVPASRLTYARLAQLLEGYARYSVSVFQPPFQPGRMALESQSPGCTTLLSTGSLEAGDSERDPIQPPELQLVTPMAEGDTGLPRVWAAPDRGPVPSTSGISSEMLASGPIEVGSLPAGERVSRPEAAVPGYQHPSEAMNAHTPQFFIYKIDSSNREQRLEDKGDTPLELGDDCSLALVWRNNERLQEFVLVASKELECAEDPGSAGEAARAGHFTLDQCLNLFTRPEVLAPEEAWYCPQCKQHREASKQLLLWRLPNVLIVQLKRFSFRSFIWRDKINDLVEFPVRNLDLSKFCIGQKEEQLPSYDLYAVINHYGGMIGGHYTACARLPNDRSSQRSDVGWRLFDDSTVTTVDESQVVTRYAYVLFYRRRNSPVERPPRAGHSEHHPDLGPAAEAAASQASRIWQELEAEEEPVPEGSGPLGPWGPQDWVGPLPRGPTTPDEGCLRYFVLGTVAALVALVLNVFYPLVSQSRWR
Assay: USP19 fluorescence polarisation (FP) assay, Ubiquitin-Lys-TAMRA substrate
Type: biochemical
Conditions: average of at least two duplicate experiments
In short: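 Fluorescence polarisation (excitation 530 nm, parallel and perpendicular emission at 575 nm) was recorded every 15 min for 90 min after adding the ubiquitin-Lys-TAMRA isopeptide (500 nM as dispensed). Beforehand, the full-length enzyme (2.5 nM as dispensed) sat 30 min at RT with compound diluted from 200 μM to 2 μM in HEPES pH 7.4 buffer with 150 mM NaCl, 5 mM DTT, 0.05% BSA and 0.05% CHAPS. Values normalised to uninhibited wells gave IC50s by non-linear fitting, each the mean of two or more duplicate runs.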

Row | Compound | IC50 [nM]
1 | O=C(N[C@@H]1CCN(C(=O)N2CC[C@@H](Cn3cnc4ccc(F)cc4c3=O)C3(CCCC3)C2)[C@H](c2cc(F)ccc2F)C1)C1CC1 [Example 173, N-((2S,4R)-2-(2,5-Difluorophenyl)-1-((R)-10-((6-fluoro-4-oxoquinazolin-3(4H)-yl)methyl)-7-azaspiro[4.5]decane-7-carbonyl)piperidin-4-yl)cyclopropanecarboxamide] | 10 to 100
2 | Cc1cc(=O)n(CC2CCN(C(=O)N3CC[C@@H](N)C[C@H]3c3ccccc3)CC23CCCC3)cn1 (stereo partly drawn) [Example 32, 3-((7-((2S,4R)-4-Amino-2-phenylpiperidine-1-carbonyl)-7-azaspiro[4.5]decan-10-yl)methyl)-6-methylpyrimidin-4(3H)-one] | 10 to 100
3 | N[C@@H]1CCN(C(=O)N2CCC(Cn3cnc4ccc(F)cc4c3=O)C3(CCCC3)C2)[C@H](c2ccccc2)C1 (stereo partly drawn) [Example 27, 3-((7-((2S,4R)-4-Amino-2-phenylpiperidine-1-carbonyl)-7-azaspiro[4.5]decan-10-yl)methyl)-6-fluoroquinazolin-4(3H)-one] | < 10
4 | O=C(N1CC[C@@H](Cn2ccc(-c3ccccc3)cc2=O)C2(CCCC2)C1)N1CC[C@@H](NC2CS(=O)(=O)C2)C[C@H]1c1ccccc1 [Example 50, 1-(((R)-7-((2S,4R)-4-((1,1-Dioxidothietan-3-yl)amino)-2-phenylpiperidine-1-carbonyl)-7-azaspiro[4.5]decan-10-yl)methyl)-4-phenylpyridin-2(1H)-one] | 10 to 100
5 | CN[C@@H]1CCN(C(=O)N2CC[C@@H](Cn3cnc(-c4ccccc4F)cc3=O)C3(CCCC3)C2)[C@H](c2ccc(F)cc2F)C1 [Example 141, 3-(((R)-7-((2S,4R)-2-(2,4-Difluorophenyl)-4-(methylamino)piperidine-1-carbonyl)-7-azaspiro[4.5]decan-10-yl)methyl)-6-(2-fluorophenyl)pyrimidin-4(3H)-one] | < 10
6 | CC(C)N[C@@H]1CCN(C(=O)N2CC[C@@H](Cn3cnc4ccc(F)cc4c3=O)C3(CCCC3)C2)[C@H](c2cc(F)ccc2F)C1 [Example 189, 3-(((R)-7-((2S,4R)-2-(2,5-Difluorophenyl)-4-(isopropylamino)piperidine-1-carbonyl)-7-azaspiro[4.5]decan-10-yl)methyl)-6-fluoroquinazolin-4(3H)-one] | < 10
7 | CN[C@@H]1CCN(C(=O)N2CC[C@@H](Cn3cnc(-c4ccccc4)cc3=O)C3(CCCC3)C2)[C@H](c2cc(F)ccc2F)C1 [Example 78, 3-(((R)-7-((2S,4R)-2-(2,5-Difluorophenyl)-4-(methylamino)piperidine-1-carbonyl)-7-azaspiro[4.5]decan-10-yl)methyl)-6-phenylpyrimidin-4(3H)-one] | < 10
8 | CC1(C)CN(C(=O)N2CC[C@@H](N)C[C@H]2c2ccccc2)CCC1Cn1ccc(-c2ccccc2)cc1=O (stereo partly drawn) [Example 21, 1-((1-((2S,4R)-4-Amino-2-phenylpiperidine-1-carbonyl)-3,3-dimethylpiperidin-4-yl)methyl)-4-phenylpyridin-2(1H)-one] | < 10
9 | Cc1ccccc1-c1ccn(C[C@@H]2CCN(C(=O)N3CC[C@@H](N)C[C@H]3c3ccccc3)CC23CCCC3)c(=O)c1 [Example 60, 1-(((R)-7-((2S,4R)-4-Amino-2-phenylpiperidine-1-carbonyl)-7-azaspiro[4.5]decan-10-yl)methyl)-4-(o-tolyl)pyridin-2(1H)-one] | < 10
10 | N[C@@H]1CC[C@@H](c2ccccc2)N(C(=O)N2CC[C@@H](Cn3cnc(-c4ccccc4)cc3=O)C3(CCCC3)C2)C1 (racemic) [Example 188, 3-(((R)-7-((2S,5R)-5-Amino-2-phenylpiperidine-1-carbonyl)-7-azaspiro[4.5]decan-10-yl)methyl)-6-phenylpyrimidin-4(3H)-one and 3-(((R)-7-((2R,5S)-5-amino-2-phenylpiperidine-1-carbonyl)-7-azaspiro[4.5]decan-10-yl)methyl)-6-phenylpyrimidin-4(3H)-one] | 10 to 100
11 | CN[C@@H]1CCN(C(=O)N2CCC(Cn3cnc(-c4ccccc4)cc3=O)CC2)[C@H](c2cccc(F)c2)C1 [Example 74, 3-((1-((2S,4R)-2-(3-Fluorophenyl)-4-(methylamino)piperidine-1-carbonyl)piperidin-4-yl)methyl)-6-phenylpyrimidin-4(3H)-one] | < 10
12 | CN(C)[C@@H]1CCN(C(=O)N2CC[C@@H](Cn3cnc4ccc(F)cc4c3=O)C3(CCCC3)C2)[C@H](c2cc(F)cc(F)c2)C1 [Example 184, 3-(((R)-7-((2S,4R)-2-(3,5-Difluorophenyl)-4-(dimethylamino)piperidine-1-carbonyl)-7-azaspiro[4.5]decan-10-yl)methyl)-6-fluoroquinazolin-4(3H)-one hydrochloride] | 100 to 1000
13 | O=C(N1CC[C@@H](Cn2cnc(-c3ccccc3)cc2=O)C2(CCCC2)C1)N1CC[C@@H](NCC(F)F)C[C@H]1c1ccccc1 [Example 71, 3-(((R)-7-((2S,4R)-4-((2,2-Difluoroethyl)amino)-2-phenylpiperidine-1-carbonyl)-7-azaspiro[4.5]decan-10-yl)methyl)-6-phenylpyrimidin-4(3H)-one] | < 10
